Assay results from patent publication US10940188B2, “Compounds and methods for treatment and prevention of Flavivirus infection” (priority 2016, dated 2021).
Where a name gives a salt, the structure may show the parent alone. Read-outs that look alike come from different tables or passages of the source.

Legend:
[1] = system: ZIKV-induced cell death in SNB-19 cells; assay: ATP cell viability assay for ZIKV-induced cell death, SNB-19 cells; assay type: cell-based, human; conditions: for IC50: read-out: Cell viability (IC50, uM) SNB-19
Description: (§1) The reagent was reconstituted and prepared as described by the manufacturer. In order to measure the cell death caused by ZIKV infection, cells were cultured for 16 hours at 37° C. with 5% CO2 in assay plates, followed by the addition of ZIKV solution and incubation at 37° C. with 5% CO2 for 72 hours. ATPlite, the ATP monitoring reagent, was then added to the assay plates and they were incubated for 15 minutes. The resulting luminescence was measured using the ViewLux plate reader (Perkin Elmer). Data were normalized using the wells without cells as a control for 100% cell killing, and cell-containing wells without ZIKV infection were used as full cell viability (0% cell killing). […]
as §1, with “The ATPlite luminescence assay system assay kit (PerkinElmer) was used to determine cell viability. The reagent” for “The reagent”, “by the manufacture. In order” for “by the manufacturer. In order”, “followed by addition of” for “followed by the addition of”, “plates and incubated for” for “plates and they were incubated for”, “Elmer). Data was normalized using” for “Elmer). Data were normalized using”

[2] = system: ZIKV-induced caspase 3/7 activity in hNPCs; assay: Caspase 3/7 activity assay, ZIKV-infected hNPCs; assay type: cell-based; conditions: ZIKV-infected hNPCs; for IC50: read-out: Caspase 3 (IC50, uM) NPCs; for Emax: read-out: Caspase 3 (efficacy, %) NPCs
Description: (§2) Caspase-Glo 3/7 assay kit (catalog number G8092; Promega, Madison, Wis.) was used to detect caspase 3/7 activity. Reagents were reconstituted as described in the protocol from the manufacturer. Polystyrene plates (384-well and 1536-well; regular tissue culture treated and PDL coated) were purchased from Greiner Bio-One (Monroe, N.C.). Cells were seeded in 384- and 1536-well assay plates and cultured at 37° C. with 5% CO2 for 16 hours. ZIKV solution was added to cells, followed by incubation at 37° C. with 5% CO2 for 6 hours. Caspase-Glo 3/7 was added to each well, unless otherwise specified, and incubated at room temperature for 30 minutes. The luminescence intensity of the assay plates was measured using a ViewLux plate reader (PerkinElmer). Data were normalized by using the cell-containing wells without ZIKV as a negative control (0% induction of caspase 3/7 activity) and wells containing ZIKV infected cells that induced caspase 3/7 activity were used as a positive control (100% induction of caspase 3/7 activity).
Human NPCs were seeded onto PDL coated 1536-well assay plates at 250 cells per 3 μl/well and incubated at 37° C. in 5% CO2 for 16 hours. Test compounds dissolved in DMSO were transferred to assay plates at a volume of 23 nl/well by an automated pintool workstation (Wako Automation, San Diego, Calif.). Compounds were incubated with cells for 30 minutes at 37° C. in 5% CO2, immediately followed by the addition of 2 μl/well of ZIKV. Incubation time of compound-treated cells with ZIKV varied based on assay format. Experiments measuring virus-induced caspase 3/7 activity required a 6 hour incubation of ZIKV in the presence compounds at 37° C. in 5% CO2. Following this incubation, 3.5 μl/well of caspase 3/7 reagent mixture was added to assay plates. The plates were incubated for 30 minutes at room temperature, and the resultant luminescence signal was measured using a ViewLux plate reader (Perkin Elmer). Experiments measuring virus-induced cell death required a 72-hour incubation of ZIKV in the presence of compounds at 37° C. in 5% CO2. Following this incubation, 3.5 μl/well of ATP content detection reagent was added to assay plates, incubated for 30 minutes at the room temperature, and the resultant luminescence signal was measured in a ViewLux plate reader.
(§3) Caspase-Glo 3/7 assay kit (Promega) was used to detect caspase 3/7 activity. Reagents were reconstituted as described in the protocol from the manufacturer. Cells were seeded in 384- and 1536-well assay plates and cultured at 37° C. with 5% CO2 for 16 hours. ZIKV solution was added to cells, followed by incubation at 37° C. with 5% CO2 for 6 hours. Caspase-Glo 3/7 was added to each well at a 1:1 ratio, unless otherwise specified, and incubated at room temperature for 30 minutes. The luminescence intensity of the assay plates was measured using a ViewLux plate reader (PerkinElmer). Data was normalized by using the cell-containing wells without ZIKV as a negative (0% induction of caspase 3/7 activity) control and wells containing ZIKV infected cells that induced caspase 3/7 activity were used as a positive control (100% induction of caspase 3/7 activity).
Human NPCs were seeded onto PDL coated 1536-well assay plates at 250 cells per 3 μl/well and incubated at 37° C. in 5% CO2 for 16 hours. Test compounds dissolved in DMSO were transferred to assay plates at a volume of 23 nl/well by an automated pintool workstation (Wako Automation, San Diego, Calif.). Compounds were incubated with cells for 30 minutes at 37° C. in 5% CO2, immediately followed by the addition of 2 μl/well of ZIKV. Incubation time of compound-treated cells with ZIKV varied based on assay format. Experiments measuring virus induced caspase 3/7 activity required a 6 hour incubation of ZIKV in the presence compounds at 37° C. in 5% CO2. […]

[3] = system: ZIKV-induced caspase 3/7 activity in SNB-19 cells; assay: Caspase 3/7 activity assay, ZIKV-infected SNB-19 cells; assay type: cell-based; conditions: ZIKV-infected SNB-19 cells; for IC50: read-out: Caspase 3 (IC50, uM) SNB-19; for Emax: read-out: Caspase 3 (efficacy, %) SNB-19
Description: as §2, with “activity). […]” for “activity).”
as §3, with “activity). […]” for “activity).”

[4] = system: ZIKV-induced caspase 3/7 activity in human astrocytes; assay: Caspase 3/7 activity assay, ZIKV-infected human astrocytes; assay type: cell-based; conditions: ZIKV-infected human astrocytes; for IC50: read-out: Caspase 3 (IC50, uM) Astrocyte; for Emax: read-out: Caspase 3 (efficacy, %) Astrocyte
Description: as §2, with “activity). […]” for “activity).”
as §3, with “activity). […]” for “activity).”

[5] = system: ZIKV-induced cell death in human astrocytes; assay: ATP cell viability assay for ZIKV-induced cell death, human astrocytes; assay type: cell-based; conditions: for IC50: read-out: Cell viability (IC50, uM) Astrocyte
[6] = Homo sapiens, ZIKV-infected SNB-19 cells

Row | Compound | IC50 ([2]; Homo sapiens) | IC50 ([3]; Homo sapiens) | IC50 ([4]; Astrocyte) | Cell viability (efficacy, %) SNB-19 ([1]; ZIKV-infected SNB-19 cells) | IC50 ([1]; ZIKV-infected SNB-19 cells) | Caspase 3 (efficacy, %) NPCs [2] | IC50 [2] | Caspase 3 (efficacy, %) SNB-19 [3] | IC50 [3] | Caspase 3 (efficacy, %) Astrocyte [4] | IC50 [4] | Cell viability (efficacy, %) Astrocyte ([5]; ZIKV-infected human astrocytes) | Emax ([2]; Homo sapiens) | Emax ([3]; Homo sapiens) | Emax ([4]; Astrocyte) | Cell viability (efficacy, %) SNB-19 [1] | Cell viability (efficacy, %) Astrocyte [5] | IC50 ([5]; ZIKV-infected human astrocytes) | IC50 [1, 6] | IC50 ([5]; Astrocyte, ZIKV-infected human astrocytes)
1 | N#C/C(=C\c1ccc(O)c(O)c1)C(=O)Nc1ccccc1 [Tyrphostin AG 494] | – | – | – | 45.6% | 30.8 µM | 72.8% | 17.3 µM | 55.6% | 21.8 µM | 72.5% | 18.4 µM | 0.0% | – | – | – | – | – | – | – | –
2 | O=c1c2ccccc2nc2n1CCc1c-2[nH]c2ccccc12 [Rutaecarpine] | 4.61 µM | 5.18 µM | 4.89 µM | 0.0% | – | – | – | – | – | – | – | 0.0% | 87.5% | 86.4% | 89.5% | – | – | – | – | –
3 | Malachite green oxalate | – | – | – | – | – | 62.7% | 21.8 µM | 0.0% | – | 54.0% | 17.3 µM | – | – | – | – | 0.0% | 0.0% | – | – | –
4 | CC(C)(C)COc1ccc(-n2cc(C(=O)O)cn2)cc1C#N [Piraxostat] | – | – | – | 60.3% | 5.01 µM | 67.1% | 15.8 µM | 63.5% | 21.1 µM | 70.5% | 8.91 µM | 34.7% | – | – | – | – | – | 63.1 µM | – | –
5 | O=C(Nc1ccc(Br)cc1)c1cc(Br)cc(Br)c1O [Tribromsalan] | 13.8 µM | 7.74 µM | 6.9 µM | – | – | – | – | – | – | – | – | – | 108% | 107% | 102% | 0.0% | 0.0% | – | – | –
6 | COc1cccc(NC(=O)/C=C/c2ccc(Cl)cc2)c1 [SB-366791] | – | – | – | 0.0% | – | 89.9% | 2.91 µM | 93.3% | 3.66 µM | 93.9% | 4.11 µM | 0.0% | – | – | – | – | – | – | – | –

Second part, led by results:

Row | IC50 ([2]; Homo sapiens) | IC50 ([3]; Homo sapiens) | IC50 ([4]; Astrocyte) | Compound | Cell viability (efficacy, %) SNB-19 ([1]; ZIKV-infected SNB-19 cells) | IC50 ([1]; ZIKV-infected SNB-19 cells) | Caspase 3 (efficacy, %) NPCs [2] | IC50 [2] | Caspase 3 (efficacy, %) SNB-19 [3] | IC50 [3] | Caspase 3 (efficacy, %) Astrocyte [4] | IC50 [4] | Cell viability (efficacy, %) Astrocyte ([5]; ZIKV-infected human astrocytes) | Emax ([2]; Homo sapiens) | Emax ([3]; Homo sapiens) | Emax ([4]; Astrocyte) | Cell viability (efficacy, %) SNB-19 [1] | Cell viability (efficacy, %) Astrocyte [5] | IC50 ([5]; ZIKV-infected human astrocytes) | IC50 [1, 6] | IC50 ([5]; Astrocyte, ZIKV-infected human astrocytes)
7 | 18.4 µM | 29.1 µM | – | O=c1cc(-c2ccccc2)oc2cc(O)c(O)c(O)c12 [Baicalein] | 0.0% | – | – | – | – | – | – | – | 0.0% | 57.5% | 50.6% | 0% | – | – | – | – | –
8 | 19.5 µM | 17.3 µM | 17.3 µM | COc1ccc(/C=C/C(=O)Nc2ccccc2C(=O)O)cc1OC [Tranilast] | 0.0% | – | – | – | – | – | – | – | 0.0% | 107% | 70.3% | 71.6% | – | – | – | – | –
9 | 11.6 µM | 16.4 µM | 15.5 µM | Nc1ccc(/N=N/c2ccccc2)c(N)n1 [Phenazopyridine hydrochloride] | 35.3% | – | – | – | – | – | – | – | 0.0% | 72.5% | 73.7% | 69.9% | – | – | – | 27.5 µM | –
10 | 35.5 µM | – | – | CCC(CC)CC1(C(=O)Nc2ccccc2SC(=O)C(C)C)CCCCC1 [Dalcetrapib] | 110% | – | – | – | – | – | – | – | 45.7% | 50.2% | 50.2% | 0% | – | – | – | 35.5 µM | 47.3 µM
11 | 13.8 µM | 19.5 µM | 20.6 µM | O=C(/C=C/C=C/c1ccc2c(c1)OCO2)N1CCCCC1 [Piperine] | 0.0% | – | – | – | – | – | – | – | 0.0% | 66% | 75.5% | 73.9% | – | – | – | – | –
12 | 0.92 µM | 1.03 µM | 1.3 µM | C/C(O)=C(\C#N)C(=O)Nc1ccc(C(F)(F)F)cc1 [Teriflunomide] | 0.0% | – | – | – | – | – | – | – | 0.0% | 94.5% | 93.1% | 86.9% | – | – | – | – | –
